# Measurements published in article PMC2988090 (Nature, 2010).
# Entries after “also recorded” stand apart in the source; their conditions may differ.
# Molecular target: T1, dialyzed COI1-ASK1 in the presence of JAZ1 (Arabidopsis thaliana, UniProt O04197+Q9LMA8)
# T1 sequence (O04197 1-592): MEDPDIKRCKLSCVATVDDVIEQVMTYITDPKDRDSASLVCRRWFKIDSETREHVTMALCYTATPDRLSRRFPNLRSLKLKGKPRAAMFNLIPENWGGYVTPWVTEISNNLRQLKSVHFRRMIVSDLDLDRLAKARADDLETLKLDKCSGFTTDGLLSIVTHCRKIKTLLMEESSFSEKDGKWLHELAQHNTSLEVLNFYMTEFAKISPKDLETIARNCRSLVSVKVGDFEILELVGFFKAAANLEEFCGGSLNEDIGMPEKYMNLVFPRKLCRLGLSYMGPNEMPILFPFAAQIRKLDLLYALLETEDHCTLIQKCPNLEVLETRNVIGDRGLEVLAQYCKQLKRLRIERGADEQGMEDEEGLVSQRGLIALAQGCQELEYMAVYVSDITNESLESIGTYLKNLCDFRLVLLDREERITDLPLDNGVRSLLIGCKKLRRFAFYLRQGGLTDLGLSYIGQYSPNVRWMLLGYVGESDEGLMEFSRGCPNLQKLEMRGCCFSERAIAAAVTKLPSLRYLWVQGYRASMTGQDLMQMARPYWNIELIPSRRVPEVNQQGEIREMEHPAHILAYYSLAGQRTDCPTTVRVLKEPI
# T1 sequence (Q39255 1-160 partner): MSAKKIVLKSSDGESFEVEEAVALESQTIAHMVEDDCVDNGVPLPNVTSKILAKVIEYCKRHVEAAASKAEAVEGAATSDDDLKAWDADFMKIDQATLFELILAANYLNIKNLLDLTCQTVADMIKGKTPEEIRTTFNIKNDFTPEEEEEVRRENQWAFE
# T1 sequence (Q9LMA8 1-253): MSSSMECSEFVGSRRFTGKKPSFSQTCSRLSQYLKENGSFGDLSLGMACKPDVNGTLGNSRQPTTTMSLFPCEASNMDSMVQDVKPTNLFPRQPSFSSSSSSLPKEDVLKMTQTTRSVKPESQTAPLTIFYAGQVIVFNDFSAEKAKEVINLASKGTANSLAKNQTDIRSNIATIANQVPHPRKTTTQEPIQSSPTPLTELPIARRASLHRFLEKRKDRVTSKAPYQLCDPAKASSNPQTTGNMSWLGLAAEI
# Test: inositol phosphate reconstitution assay
# Assay type: binding
# Conditions: dialyzed COI1, 100 nM ^3H-coronatine, 1 µM inositol phosphate
row,Compound,support of COI1-JAZ1 co-receptor ligand binding activity
1,"O=P(O)(O)OC1C(OP(=O)(O)O)C(OP(=O)(O)O)C(OP(=O)(O)O)C(OP(=O)(O)O)C1OP(=O)(O)O (stereo not drawn) [InsP6, inositol hexakisphosphate]",not favorable for activity
2,"O=P(O)(O)O[C@H]1[C@H](OP(=O)(O)O)[C@@H](OP(=O)(O)O)[C@@H](O)[C@@H](O)[C@@H]1OP(=O)(O)O [inositol (1,4,5,6) tetrakisphosphate]",supports the activity; also recorded: support high affinity hormone binding
3,"O=P(O)(O)O[C@@H]1[C@H](O)[C@H](O)[C@@H](OP(=O)(O)O)[C@H](OP(=O)(O)O)[C@H]1O [inositol (1,4,5) triphosphate]",does not
